Reference: patent US8653089B2, “Heterocyclic compounds and methods of use” (F. Hoffmann-La Roche AG, priority 2011, dated 2014)

Legend:
[1] = target: T1, p110 delta (Homo sapiens, UniProt O00329); test: PI3K isoform inhibition assay (fluorescence polarization), p110 delta; format: biochemical; conditions: p110 delta binding IC50, selected compounds from Table 1
T1 construct: purchased Upstate Group, Millipore; Dundee, UK
Experimental: PI3K enzymatic activity was assayed by measuring the amount of product phosphatidylinositol 3,4,5-phosphate (PIP3) formed from substrate 4,5 phosphatidylinositol 4,5-phosphate (PIP2) using a fluorescence polarization displacement assay. The decrease in fluorescence polarization of a fluorescent PIP3 probe is measured as it is displaced from a PIP3-binding protein GRP-1detector by PI3K-catalyzed product. Assays were conducted in 384-well black Proxiplates in the presence of 10 mM Tris (pH 7.5), 50 mM NaCl, 4 mM MgCl2, 5% glycerol, 25 μM ATP, 10 μM PIP2 (Echelon Biosciences), 0.05% 3-[(3-cholamidopropyl)dimethylammonio]-1-propanesulfonate, 1 mM dithiothreitol, and 2% DMSO. The kinase reactions were initiated by the addition of 40 ng/mL p110α/p85α, 300 ng/mL p110β/p85α, 40 ng/mL p110γ, or 40 ng/mL p110δ/p85α (Upstate Group, Millipore; Dundee, UK), and 10 μM PIP2 (Echelon Biosciences) to the wells. The reactions were stopped at timepoints that yielded a fixed change in fluorescence polarization consistent with initial rate conditions (typically 30 minutes), by the addition of 12.5 mM EDTA, 100 nM GRP-1 detector, and 5 nM tetramethylrhodamine-labeled PIP3 (TAMRA-PIP3; Echelon Biosciences). After 60 minutes of incubation at room temperature to allow equilibration of labeled and unlabeled PIP3 binding, the parallel and perpendicular components of the fluorescence emissions from each sample were measured at an excitation wavelength of 530 nm and an emission wavelength of 590 nm using an Envision fluorescent plate reader with a rhodamine filter (PerkinElmer Life and Analytical Sciences; Wellesley, Mass.). The assay is capable of detecting 0.1-2.0 μM PIP3 product. The IC50 values were obtained by fitting the dose-dependent inhibition data to a 4-parameter equation using Assay Explorer software (MDL, San Ramon, Calif.). […]
(§1) Recombinant PI3K p110 isoforms alpha, beta, and delta may be prepared and purified according to US 2008/0275067 from recombinant PI3K heterodimeric complexes consisting of a p110 catalytic subunit and a p85 regulatory subunit overexpressed using the BAC-TO-BAC® HT baculovirus expression system (GIBCO/BRL), and then purified for use in biochemical assays. The four Class I PI 3-kinases are cloned into baculovirus vectors as follows:
p110 delta: A FLAG™-tagged (Eastman Kodak Co., U.S. Pat. No. 4,703,004; U.S. Pat. No. 4,782,137; U.S. Pat. No. 4,851,341) version of human p110.delta (Chantry et al., J. Biol. Chem. (1997) 272:19236-41) is subcloned using standard recombinant DNA techniques into the BamHI-XbaI site of the insect cell expression vector pFastbac HTb (Life Technologies, Gaithersburg, Md.), such that the clone is in frame with the His tag of the vector.

[2] = target: T2, p110 alpha (Homo sapiens, UniProt P42336); test: PI3K isoform inhibition assay, p110 alpha (delta/alpha selectivity); format: biochemical; conditions: delta/alpha selectivity ratio
T2 construct: purchased Upstate Group, Millipore; Dundee, UK
T2 sequence (P42336 whole entry, canonical isoform): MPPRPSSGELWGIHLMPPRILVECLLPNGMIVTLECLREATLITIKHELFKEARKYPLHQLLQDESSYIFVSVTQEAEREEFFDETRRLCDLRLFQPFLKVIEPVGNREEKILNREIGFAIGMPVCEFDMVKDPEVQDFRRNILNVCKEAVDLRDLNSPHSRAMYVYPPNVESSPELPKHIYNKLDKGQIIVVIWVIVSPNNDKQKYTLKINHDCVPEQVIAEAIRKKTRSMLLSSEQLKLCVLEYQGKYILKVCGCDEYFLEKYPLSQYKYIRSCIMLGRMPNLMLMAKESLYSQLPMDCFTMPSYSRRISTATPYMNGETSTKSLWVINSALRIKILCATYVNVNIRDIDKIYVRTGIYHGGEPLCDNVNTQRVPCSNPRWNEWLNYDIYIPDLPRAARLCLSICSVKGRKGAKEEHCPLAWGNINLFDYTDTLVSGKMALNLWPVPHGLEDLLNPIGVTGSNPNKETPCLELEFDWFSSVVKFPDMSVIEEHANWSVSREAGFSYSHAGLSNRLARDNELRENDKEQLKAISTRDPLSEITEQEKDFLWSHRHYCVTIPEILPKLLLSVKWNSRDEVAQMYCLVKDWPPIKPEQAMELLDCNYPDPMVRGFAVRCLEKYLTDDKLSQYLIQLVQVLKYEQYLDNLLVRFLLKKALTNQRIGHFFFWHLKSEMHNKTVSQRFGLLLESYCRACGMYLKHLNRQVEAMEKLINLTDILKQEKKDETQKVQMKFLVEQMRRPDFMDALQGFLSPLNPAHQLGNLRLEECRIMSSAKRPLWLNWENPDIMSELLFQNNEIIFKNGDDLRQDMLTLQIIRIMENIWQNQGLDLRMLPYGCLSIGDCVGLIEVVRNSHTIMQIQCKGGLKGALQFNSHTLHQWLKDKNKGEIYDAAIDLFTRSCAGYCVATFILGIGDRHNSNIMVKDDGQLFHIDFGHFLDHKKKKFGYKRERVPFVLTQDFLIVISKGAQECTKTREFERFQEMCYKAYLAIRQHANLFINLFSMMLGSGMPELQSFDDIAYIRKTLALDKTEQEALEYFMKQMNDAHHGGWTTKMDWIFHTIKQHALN
T2 sequence (P27986 whole entry partner, canonical isoform): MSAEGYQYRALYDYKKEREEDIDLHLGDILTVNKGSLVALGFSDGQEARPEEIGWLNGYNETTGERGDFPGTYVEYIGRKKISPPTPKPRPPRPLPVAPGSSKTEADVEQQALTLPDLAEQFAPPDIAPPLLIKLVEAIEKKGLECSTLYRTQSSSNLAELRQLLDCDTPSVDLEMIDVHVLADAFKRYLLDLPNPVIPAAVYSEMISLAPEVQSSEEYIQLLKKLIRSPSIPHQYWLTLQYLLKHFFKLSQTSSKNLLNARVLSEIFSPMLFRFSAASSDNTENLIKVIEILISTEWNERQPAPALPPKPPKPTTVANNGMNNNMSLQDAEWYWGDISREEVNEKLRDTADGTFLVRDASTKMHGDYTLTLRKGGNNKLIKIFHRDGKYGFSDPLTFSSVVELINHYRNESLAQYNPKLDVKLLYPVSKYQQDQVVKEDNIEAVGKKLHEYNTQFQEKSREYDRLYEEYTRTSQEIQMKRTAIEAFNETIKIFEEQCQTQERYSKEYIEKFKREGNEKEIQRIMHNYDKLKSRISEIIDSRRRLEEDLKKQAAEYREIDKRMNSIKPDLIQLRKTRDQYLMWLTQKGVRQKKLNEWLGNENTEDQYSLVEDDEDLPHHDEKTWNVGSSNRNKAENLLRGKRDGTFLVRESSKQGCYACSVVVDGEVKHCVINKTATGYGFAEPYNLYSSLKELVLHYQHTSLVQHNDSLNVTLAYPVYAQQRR
Experimental: PI3K enzymatic activity was assayed by measuring the amount of product phosphatidylinositol 3,4,5-phosphate (PIP3) formed from substrate 4,5 phosphatidylinositol 4,5-phosphate (PIP2) using a fluorescence polarization displacement assay. The decrease in fluorescence polarization of a fluorescent PIP3 probe is measured as it is displaced from a PIP3-binding protein GRP-1detector by PI3K-catalyzed product. Assays were conducted in 384-well black Proxiplates in the presence of 10 mM Tris (pH 7.5), 50 mM NaCl, 4 mM MgCl2, 5% glycerol, 25 μM ATP, 10 μM PIP2 (Echelon Biosciences), 0.05% 3-[(3-cholamidopropyl)dimethylammonio]-1-propanesulfonate, 1 mM dithiothreitol, and 2% DMSO. The kinase reactions were initiated by the addition of 40 ng/mL p110α/p85α, 300 ng/mL p110β/p85α, 40 ng/mL p110γ, or 40 ng/mL p110δ/p85α (Upstate Group, Millipore; Dundee, UK), and 10 μM PIP2 (Echelon Biosciences) to the wells. The reactions were stopped at timepoints that yielded a fixed change in fluorescence polarization consistent with initial rate conditions (typically 30 minutes), by the addition of 12.5 mM EDTA, 100 nM GRP-1 detector, and 5 nM tetramethylrhodamine-labeled PIP3 (TAMRA-PIP3; Echelon Biosciences). After 60 minutes of incubation at room temperature to allow equilibration of labeled and unlabeled PIP3 binding, the parallel and perpendicular components of the fluorescence emissions from each sample were measured at an excitation wavelength of 530 nm and an emission wavelength of 590 nm using an Envision fluorescent plate reader with a rhodamine filter (PerkinElmer Life and Analytical Sciences; Wellesley, Mass.). The assay is capable of detecting 0.1-2.0 μM PIP3 product. The IC50 values were obtained by fitting the dose-dependent inhibition data to a 4-parameter equation using Assay Explorer software (MDL, San Ramon, Calif.).
Alternatively, inhibition of PI3K was determined in a radiometric assay using purified, recombinant enzyme and ATP at a concentration of 1 uM. The Formula I compound was serially diluted in 100% DMSO. The kinase reaction was incubated for 1 h at room temperature, and the reaction was terminated by the addition of PBS. IC50 values were subsequently determined using sigmoidal dose-response curve fit (variable slope).
The same protocol may be used to establish IC50 values for p110α (alpha) PI3K binding.
as §1
p110 alpha: Similar to the method used for p110 delta, described above, a FLAG™-tagged version of p110 alpha (Volinia et al (1994) Genomics, 24(3):427-77) was subcloned in BamH1-HindIII sites of pFastbac HTb (Life Technologies) such that the clone was in frame with the His tag of the vector.

[3] = test system: CD69 expression on CD20 positive cells in human whole blood stimulated by anti-IgM; test: CD69 Whole Blood Assay; format: cell-based; conditions: concentration decreasing by 50% the percent CD69 positive cells that are also CD20 positive, 20 hours
From the text: Human blood is obtained from healthy volunteers, with the following restrictions: 1 week drug-free, non-smokers. Blood (approximately 20 mls to test 8 compounds) is collected by venipuncture into Vacutainer tubes with sodium heparin.
Cynomolgus monkey blood is obtained courtesy of the LAT group from monkeys not previously exposed to, or after a washout period from, chemical dosing. Additional cyno blood draws may be collected during the course of pharmacokinetic or toxicology studies. Blood (25-30 mls for naïve monkeys or 3-4 mls from monkeys on studies requiring repeated draws) is collected by venipuncture into Vacutainer tubes with sodium heparin.
Solutions of Formula I compounds at 1000 or 2000 μM in PBS (20×), are diluted by three-fold serial dilutions in 10% DMSO in PBS for a nine point dose-response curve. An aliquot of 5.5 μl of each compound is added in duplicate to a 2 ml 96-well plate; 5.5 μl of 10% DMSO in PBS is added as control and no-stimulus wells. Human whole blood—HWB (100 μl) is added to each well. After mixing the plates are incubated at 37° C., 5% CO2, 100% humidity for 30 minutes. Goat F(ab′)2 anti-human IgM (10 μl of a 500 μg/ml solution, 50 μg/ml final) is added to each well (except the no-stimulus wells) with mixing and the plates are incubated for an additional 20 hours. At the end of the 20 hour incubation, samples are incubated with fluorescent labeled antibodies for 30 minutes, at 37° C., 5% CO2, 100% humidity. Include induced control, unstained and single stains for compensation adjustments and initial voltage settings. Samples are then lysed with Pharmingen Lyse according to the manufacturer's instructions. Samples are then transferred to a 96 well plate suitable to be run on the AMS 96 well system on the BD Calibur FACs machine. Data acquired and Mean Fluorescence Intensity values were obtained using Cell Quest Software. Results are initially analyzed by FACS analysis software (Flow Jo). […] The […] values are calculated by ActivityBase using Xlfit version 3, equation 201.

T1 sequence (O00329 whole entry, canonical isoform): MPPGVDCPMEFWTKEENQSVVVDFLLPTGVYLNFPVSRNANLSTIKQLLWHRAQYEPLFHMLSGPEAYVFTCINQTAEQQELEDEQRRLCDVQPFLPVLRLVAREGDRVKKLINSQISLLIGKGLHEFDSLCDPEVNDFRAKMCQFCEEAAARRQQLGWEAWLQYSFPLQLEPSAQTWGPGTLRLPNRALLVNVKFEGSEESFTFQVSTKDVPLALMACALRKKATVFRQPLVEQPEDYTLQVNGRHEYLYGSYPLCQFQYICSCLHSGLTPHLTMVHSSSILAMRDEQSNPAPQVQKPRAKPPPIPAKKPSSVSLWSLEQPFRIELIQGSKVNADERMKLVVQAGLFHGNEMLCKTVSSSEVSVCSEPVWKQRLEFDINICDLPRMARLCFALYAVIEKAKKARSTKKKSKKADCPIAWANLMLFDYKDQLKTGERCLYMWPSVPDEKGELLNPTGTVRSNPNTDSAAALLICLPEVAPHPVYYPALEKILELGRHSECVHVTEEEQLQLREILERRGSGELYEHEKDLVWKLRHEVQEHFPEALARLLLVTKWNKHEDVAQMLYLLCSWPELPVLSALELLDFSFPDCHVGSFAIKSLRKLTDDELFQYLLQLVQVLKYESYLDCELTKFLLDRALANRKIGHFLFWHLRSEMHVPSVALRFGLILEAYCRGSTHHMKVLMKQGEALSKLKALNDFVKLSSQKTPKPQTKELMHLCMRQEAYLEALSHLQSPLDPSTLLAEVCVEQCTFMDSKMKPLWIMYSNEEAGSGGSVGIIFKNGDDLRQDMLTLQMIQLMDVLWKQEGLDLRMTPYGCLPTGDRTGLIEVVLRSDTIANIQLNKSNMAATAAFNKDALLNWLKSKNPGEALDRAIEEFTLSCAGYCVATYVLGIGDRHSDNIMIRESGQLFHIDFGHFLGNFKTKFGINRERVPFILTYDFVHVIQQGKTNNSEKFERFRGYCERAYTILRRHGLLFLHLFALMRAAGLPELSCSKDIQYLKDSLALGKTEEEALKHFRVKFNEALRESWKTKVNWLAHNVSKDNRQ
T1 sequence (P27986 whole entry partner, canonical isoform): as the sequence (P27986 whole entry partner, canonical isoform) above

Row | SMILES | IC50 [1] | IC50 p110 alpha/IC50 p110 delta (greater than or equal to, ≧) [2] | IC50 [3]
1 | CC(=O)N1CCC(n2c([C@H](C)Nc3ncnc4[nH]cnc34)nc3ccccc32)CC1 [Example 115, (S)-1-(4-(2-(1-(9H-purin-6-ylamino)ethyl)-1H-benzo[d]imidazol-1-yl)piperidin-1-yl)ethanone] | 0.0137 µM | ≥ 153 | 
2 | Nc1ncnc2c1ncn2Cc1nc2ccccc2n1-c1ccccc1 [Example 106, 9-((1-phenyl-1H-benzo[d]imidazol-2-yl)methyl)-9H-purin-6-amine] | 0.189 µM | ≥ 11 | 
3 | C[C@H](Nc1ncnc2[nH]cnc12)c1nc2ccccc2n1C1CCN(C2COC2)CC1 [Example 129, (S)—N-(1-(1-(1-(oxetan-3-yl)piperidin-4-yl)-1H-benzo[d]imidazol-2-yl)ethyl)-9H-purin-6-amine] | 0.0634 µM | ≥ 33 | 
4 | C[C@H](Nc1ncnc2[nH]cnc12)c1nc2cccnc2n1-c1ccccc1 [Example 114, (S)—N-(1-(3-phenyl-3H-imidazo[4,5-b]pyridin-2-yl)ethyl)-9H-purin-6-amine] | 0.0201 µM | ≥ 104 | 0.0834 µM
5 | C[C@H](Nc1ncnc2[nH]cnc12)c1nc2c(Cl)cccc2n1-c1ccccc1 [Example 120, (S)—N-(1-(4-chloro-1-phenyl-1H-benzo[d]imidazol-2-yl)ethyl)-9H-purin-6-amine] | 0.00446 µM | ≥ 470 | 
6 | CC(Nc1ncnc2[nH]cnc12)c1nc2ccccc2n1-c1ccccc1 (racemic) [Example 102, N-(1-(1-phenyl-1H-benzo[d]imidazol-2-yl)ethyl)-9H-purin-6-amine] | 0.0091 µM | ≥ 230 | 
7 | CC(Nc1ncnc2[nH]cnc12)c1sc2ccccc2c1-c1ccccc1 (stereo not shown) [Example 101, N-(1-(3-phenylbenzo[b]thiophen-2-yl)ethyl)-9H-purin-6-amine] | 0.0523 µM | ≥ 40 | 
8 | CC(Nc1ncnc2[nH]cnc12)c1oc2ccccc2c1-c1ccccc1 (stereo not shown) [Example 103, N-(1-(3-phenylbenzofuran-2-yl)ethyl)-9H-purin-6-amine] | 0.033 µM | ≥ 64 | 
9 | CC[C@H](Nc1ncnc2[nH]cnc12)c1nc2ccccc2n1-c1ccccc1 [Example 119, (S)—N-(1-(1-phenyl-1H-benzo[d]imidazol-2-yl)propyl)-9H-purin-6-amine] | 0.00159 µM | ≥ 1320 | 

Continued, values first:

Row | IC50 [1] | IC50 p110 alpha/IC50 p110 delta (greater than or equal to, ≧) [2] | IC50 [3] | SMILES
10 | 0.0879 µM | ≥ 24 |  | C[C@H](Nc1ncnc2sccc12)c1nc2ccccc2n1-c1ccccc1 [Example 143, (S)—N-(1-(1-phenyl-1H-benzo[d]imidazol-2-yl)ethyl)thieno[2,3-d]pyrimidin-4-amine]
11 |  |  | 0.0876 µM | C[C@H](Nc1ncnc2[nH]cnc12)c1nc2cccc(Cl)c2n1-c1ccccc1 [Example 138, (S)—N-(1-(7-chloro-1-phenyl-1H-benzo[d]imidazol-2-yl)ethyl)-9H-purin-6-amine]
12 | 0.278 µM |  |  | Cc1nn(Cc2nc3ccccc3n2-c2ccccc2)c2ncnc(N)c12 [Example 142, 3-methyl-1-((1-phenyl-1H-benzo[d]imidazol-2-yl)methyl)-1H-pyrazolo[3,4-d]pyrimidin-4-amine]
13 | 0.302 µM |  |  | Nc1ncnc2c1ccn2Cc1nc2ccccc2n1-c1ccccc1 [Example 139, 7-((1-phenyl-1H-benzo[d]imidazol-2-yl)methyl)-7H-pyrrolo[2,3-d]pyrimidin-4-amine]
14 |  |  | 0.0671 µM | C[C@H](Nc1ncnc2[nH]cnc12)c1nc2cccc(F)c2n1-c1ccccc1 [Example 124, (S)—N-(1-(7-fluoro-1-phenyl-1H-benzo[d]imidazol-2-yl)ethyl)-9H-purin-6-amine]
15 |  |  | 0.179 µM | CC[C@H](Nc1ncnc2nc[nH]c12)c1nc2ccc(F)cc2n1-c1ccccc1 [Example 160, (S)—N-(1-(6-fluoro-1-phenyl-1H-benzo[d]imidazol-2-yl)propyl)-7H-purin-6-amine]
16 | 0.0362 µM | ≥ 58 |  | C[C@H](Nc1ncnc2[nH]cnc12)c1nc2ccccc2n1C1CCCOC1 (stereo partly drawn) [Example 128, N-((1S)-1-(1-(tetrahydro-2H-pyran-3-yl)-1H-benzo[d]imidazol-2-yl)ethyl)-9H-purin-6-amine]
17 | 0.000854 µM | ≥ 2459 | 0.0291 µM | C[C@H](Nc1ncnc2[nH]cnc12)c1nc2ccc(F)cc2n1-c1ccccc1 [Example 123, (S)—N-(1-(6-fluoro-1-phenyl-1H-benzo[d]imidazol-2-yl)ethyl)-9H-purin-6-amine]
